Assay results from patent US12060360B2, “Lysyl oxidase inhibitors” (The Institute of Cancer Research: Royal Cancer Hospital, priority 2017, dated 2024).

Experiments:
Type in all cases: in vivo
[1] = system: MDA-MB-231 human breast adenocarcinoma; assay: MDA-MB-231 xenografts, primary tumour volume T/C; settings: 200 mg/kg po qd, ratio of average tumour volume treated/vehicle control, p<0.05
Experimental: (§1) All procedures involving animals were approved by the Animal Welfare and Ethical Review Body of the Institute of Cancer Research and Cancer Research UK Manchester Institute in accordance with National Home Office regulations under the Animals (Scientific Procedures) Act 1986 and according to the guidelines of the Committee of the National Cancer Research Institute Tumour size was determined by caliper measurements of tumour length, width and depth and volume was calculated as volume=0.5236×length×width×depth (mm).
MDA-MB-231 xenografts. Ncr nude female mice at 6 weeks old from Charles River were injected into the third upper nipple mammary fat pad with MDA-MB-231 Luc 4×10^6 in 100 ul PB (50:50 Matrigel). When tumours reach a mean of 80 mm^3 around 10 days post cell inoculation the animals are allocated in 4 groups of 8. LOX inhibitor treatment is then administrated by oral gavage dosing, at 0.2 ml/20 g bodyweight once daily for up to 28 consecutive days. Tumours and weights are measured twice weekly using calipers and the animals can be imaged using non invasive method by bioluminescence using IVIS 200 imaging machine, weekly using 150 mg/kg luciferin administrate intraperitoneal or subcutaneous. At the end of the study the animals are culled, and samples taken, fixed or snap frozen in liquid nitrogen. Frozen samples kept at −80 degree centigrade until being analyzed and the fixed samples stained according to desired marker.
(§2) For therapeutic efficacy assessment, the ratio of average tumour volume between compound treated and vehicle control treated (T/C) is calculated. Reduction in tumour volume in the compound treated group compared to vehicle-treated control group results in T/C<1. The efficacy of LOX inhibitors described in this invention, as measured by T/C in a pancreatic cancer model, a colorectal cancer model and a breast cancer model is shown in Table 2 and is significant (p<0.05) for all the data presented.

[2] = system: SW620 human colorectal carcinoma cells (mutant RAS); assay: SW620 xenografts, primary tumour volume T/C; settings: 200 mg/kg po qd; ratio of average tumour volume treated/vehicle control; p<0.05
Experimental: as §1
SW620 xenografts: NCr mice were inoculated subcutaneously in the right flank with 5×10^6 SW620 cells at 100 ul suspension per animal. Groups of 7-8 mice were assigned to treatment following stratified allocation of tumour volumes with a median size of circa 100 mm^3. […] Tumours and weights are measured twice weekly using calipers. […] Frozen samples are kept at −80 degree centigrade until being analysed and the fixed samples stained according to the desired marker.
For therapeutic efficacy assessment, the ratio of average tumour volume between compound treated and vehicle control treated (T/C) is calculated. […] The efficacy of LOX inhibitors described in this invention, as measured by T/C in a pancreatic cancer model, a colorectal cancer model and a breast cancer model is shown in Table 2 and is significant (p<0.05) for all the data presented.

[3] = system: MMTV-PyMT breast transgenic model lung metastases; assay: MMTV-PyMT transgenic mouse breast cancer model, lung metastases quantification T/C; settings: 200 mg/kg po qd, treated/vehicle control, p<0.05
Experimental: (§3) MMTV-PyMT (Guy et al, 1992) (FVB) female mice were randomized by non-statistical methods to LOX inhibitor treatment groups from day 70 post-birth, when animals had no detectable tumour. Mice were treated daily by oral gavage with LOX inhibitor in vehicle, or daily vehicle (5% DMSO/2.5% Tween20 in water) by oral gavage. Tumour size was determined unblinded by caliper measurements of tumour length, width and depth and volume was calculated as 0.5236×length×width×depth (mm). In all experiments, mice were humanely killed and mammary tumours and lungs were collected when the primary tumours reached ethical limits or signs of ill health.
For lung metastases quantification, all mouse tissue samples were fixed in 10% formalin (Sigma) and embedded in paraffin. Samples were sectioned and hematoxylin and eosin (H&E) stained. Samples were imaged with a Leica CN400 slide scanner. Lung metastases were manually selected using Pen tool in ImageScope. Lung metastases number was counted and area was measured using ImageScope. The investigator was blinded to the experimental groups. The ratio of average metastases surface between compound treated and vehicle control treated (TIC) is calculated. The ratio of average metastases numbers between compound treated and vehicle control treated (T/C) is also calculated. Reduction in metastases area and/or in metastatses number in the compound treated group compared to vehicle-treated control group results in T/C<1. The antimetastatic efficacy of LOX inhibitors described in this invention, as measured by T/C in a model of breast cancer metastasising to lungs is shown in Table 2 and is significant (p<0.05) for all the data presented.

[4] = system: MMTV-PyMT breast transgenic model primary tumour; assay: MMTV-PyMT transgenic mouse breast cancer model, primary tumour T/C; settings: 200 mg/kg po qd; ratio of average tumour volume treated/vehicle control; p<0.05
Experimental: as §1, §3, §2

[5] = system: PDAC TRP53R172H (p53 mut) cells (mouse pancreatic carcinoma); assay: PDAC allografts, primary tumour volume T/C; settings: 200 mg/kg po qd; ratio of average tumour volume treated/vehicle control; p<0.05
Experimental: as §1
PDAC allografts: CD1 nu/nu female mice at 6 weeks of age were inoculated subcutaneously in the right flank with 2×10^6 PDAC TRP53R172H (p53 mut) cells at 100 ul suspension per animal. In some examples, the oral dosing by metal gavage commences one day after cells inoculation, at 0.2 ml/20 g bodyweight per animal once daily for 2-4 weeks, with compound dissolved in 5.25% tween20/saline or 5% DMSO/water. In other examples, groups of 7-8 mice were assigned to treatment following stratified allocation of tumour volumes with a median size of circa 100 mm^3. […] Control animals received a similar dosage of vehicle (5.25% tween20/saline). Tumours and weights are measured twice weekly using calipers. At the end of the study the animals are culled, and samples taken, fixed or snap frozen in liquid nitrogen. Frozen samples kept at −80 degree centigrade until being analysed and the fixed samples stained according to the desired marker.
as §2

## CCOc1ccc(N2C[C@H]3CN(CCCC#N)C[C@@H]2C(C)(C)C3)cc1 [Example 42, 4-((1R,5S)-6-(4-ethoxyphenyl)-9,9-dimethyl-3,6-diazabicyclo[3.2.2]nonan-3-yl)butanenitrile]
[1]
  response vs control in vivo at 200 mg/kg: 41%
[2]
  T/C SW620 human colorectal carcinoma cells (mutant RAS) - primary tumour: 0.54
[3]; lung metastases area
  T/C MMT-PyMT breast transgenic model - metastases b) Area: b) 0.013
[3]; lung metastases number
  T/C MMT-PyMT breast transgenic model - metastases a) Count: a) 0.16
[4]
  T/C MMT-PyMT breast transgenic model - primary tumour: 0.50
[5]
  T/C PDAC R172H (p53 mut) (mouse pancreatic carcinoma) - primary tumour: 0.44
